Key:
[1] = target: T1, SIRT5 (Homo sapiens, UniProt Q9NXA8); assay: In-cell labeling of SIRT5 with probe 2B, cellular imaging; type: cell-based; conditions: 1 mM NR for 6 h, then 50 μM probe 2B, 15 min irradiation at 365 nm; compared with control cells
T1 construct: endogenous in cells; host or cells: HEK293
T1 sequence (Q9NXA8 37-310): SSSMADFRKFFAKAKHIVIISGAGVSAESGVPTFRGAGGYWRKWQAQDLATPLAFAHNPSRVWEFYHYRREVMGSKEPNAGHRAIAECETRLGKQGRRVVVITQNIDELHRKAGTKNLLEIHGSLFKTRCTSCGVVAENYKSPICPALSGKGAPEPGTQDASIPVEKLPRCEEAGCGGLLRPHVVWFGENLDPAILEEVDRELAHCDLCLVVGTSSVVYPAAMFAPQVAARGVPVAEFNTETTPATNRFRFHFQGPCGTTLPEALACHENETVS
Description: HEK293 cells overexpressing SIRT5 were subjected to a treatment known to increase the cellular NAD^+ level. […] Then, the cells were incubated with 50 μM probe 2B and irradiated at 365 nm for 15 min on ice. Subsequently, the cells were treated with freshly prepared “click” staining mix as described in “Materials and Methods”. After the “click” reaction, cells were incubated with anti-SIRT5 antibody before the images were acquired.
Cells were seeded in 35 mm glass-bottom dishes (MatTek, Ashland, MA, USA) and grew until 70 to 80% confluence. Then, the cells were incubated in the presence or absence of 1 mM NR for 6 h before the medium was discarded. The cells were gently rinsed with fresh growth medium three times. Subsequently, the cells were incubated with 50 μM probe 2B for 1 h before the culture dishes were placed on ice. The cells were irradiated at 365 nm in cold room for 15 min followed by fixation with 4% paraformaldehyde and permeabilization with 0.2% Triton X-100 in PBS. Then, the cells were treated with freshly prepared “click” staining mix (10 μM TAMRA-azide, 1 mM CuSO4 and 1 mM TBTA in 2 mL of deionized water), followed by the addition of 2 mM TCEP. […]
Fluorescence microscopy was carried out on a Leica TCS SP5 confocal microscope (Leica Microsystems, Mannheim, Germany). […] Images were acquired and processed using Leica Application Suite Advanced Fluorescence (LAS AF) software.

[2] = system: HEK293 cells overexpressing SIRT5; assay: Cellular NAD+ measurement, NAD+ cycling assay; type: cell-based, human; conditions: 1 mM for 6 h
Description: HEK293 cells overexpressing SIRT5 were subjected to a treatment known to increase the cellular NAD^+ level.
To the cell pellet was added 30 μL of ice-cold 7% perchloric acid; then, the sample was vortexed for 30 s and then sonicated on ice for 5 min. The vortex–sonication cycle was repeated three times. Then, the sample was centrifuged for 3 min at room temperature. Clear supernatant was taken out and neutralized to pH 7 with 3 M NaOH and 1 M phosphate buffer (pH 9). NAD^+ level was then measured using NAD^+ cycling assay as described previously [14].

[3] = system: SIRT1; assay: Acetylation level of p53 lysine 382 in cells; type: cell-based; conditions: Figure S3
[4] = target: T2, SIRT3 (Homo sapiens, UniProt Q9NTG7); assay: Sirtuin inhibition assay (HPLC), SIRT3; type: biochemical; conditions: ratio of IC50s
T2 construct: SIRT3 (102-399); made in house
T2 sequence (Q9NTG7 102-399): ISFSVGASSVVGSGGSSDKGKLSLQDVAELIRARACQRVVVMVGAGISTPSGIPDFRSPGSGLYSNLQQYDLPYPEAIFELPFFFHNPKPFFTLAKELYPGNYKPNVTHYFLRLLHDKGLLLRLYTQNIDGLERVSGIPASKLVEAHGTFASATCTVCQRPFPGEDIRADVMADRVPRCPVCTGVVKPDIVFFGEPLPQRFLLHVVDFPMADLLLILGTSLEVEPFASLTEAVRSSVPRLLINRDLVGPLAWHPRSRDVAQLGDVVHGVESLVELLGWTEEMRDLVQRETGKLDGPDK
Description: (§1) Plasmids of SIRT1 (full length), SIRT2 (38-356), SIRT3 (102-399), and SIRT5 (34-302) were generous gifts from Dr. Hening Lin (Cornell University, Ithaca, NY, USA). SIRT6 was a gift from Cheryl Arrowsmith (Addgene plasmid #28271). The proteins were expressed and purified according to previously published protocols. The identity of the protein was confirmed by tryptic digestion followed by LC-MS/MS analysis performed at the Vermont Genetic Network (VGN) Proteomics Facility. Protein concentrations were determined by Bradford assay (Thermo Fisher Scientific, Rockford, IL, USA).
(§2) A typical reaction contained 500 μM NAD^+ and 500 μM peptide substrate (H3K9Ac for SIRT2, SIRT3 and SIRT6, p53K382Ac for SIRT1 and SIRT5) of varying concentrations of a small molecule probe in 100 mM phosphate buffer pH 7.5. The reactions were initiated by the addition of 10 μM of sirtuin and were incubated at 37 °C before being quenched by 8 μL of 10% TFA. The incubation time was controlled so that the conversion of substrate was less than 15%. The samples were then injected on an HPLC fitted to a Macherey-Nagel Nucleosil C18 column. NAD^+, NAM and AADPR (acetyl-ADP-ribose) peaks were resolved using a gradient of 0 to 20% methanol in 20 mM ammonium acetate. Chromatograms were analyzed at 260 nm. Reactions were quantified by integrating areas of peaks corresponding to NAD^+ and AADPR. Rates were plotted as a function of small molecule probe concentration, and points were fitted to the following equation:ν(%) = ν0(%) − [ν0(%)(10^x)/(10^x + IC50)](1) where ν(%) represents the turnover rate expressed as percent enzymatic activity remaining, and ν0(%) represents the uninhibited turnover rate expressed as an enzymatic activity of 100%. The variable x represents the log[probe] in nanomolar. IC50 values were derived from this equation.

[5] = system: SIRT1, SIRT2, SIRT3, and SIRT6; assay: Labeling of individual recombinant sirtuins, in-gel fluorescence; type: biochemical, human; conditions: Figure S1
Description: (§3) The improved inhibitory effects of the 2nd generation ABPs prompted us to evaluate the labeling efficiency of these new probes. We first compared the abilities of benzophenone-based probe 1A and diazirine-based probe 2A to label recombinant SIRT2. The enzyme was incubated with NAD^+ and the probe, and then irradiated at 365 nm for 1 h. Subsequently, the sample was conjugated to TAMRA-azide via Cu(I)-catalyzed “click” reaction. The sample was resolved by SDS-PAGE and detected by in-gel fluorescence scanning.
A typical labeling experiment was performed as follows: in a 0.7 mL Eppendorf tube, purified recombinant human sirtuin (10 μM) was incubated with NAD^+ (500 μM) and activity-based probe at 37 °C for 10 min. The sample was transferred to a clear-bottom 96-well plate, placed on ice, and irradiated at 365 nm with a UV-lamp in a cold room. Subsequently, ingredients of the “click-chemistry” including azide-fluor 545, CuSO4, reducing agent (tris(2-carboxyethyl)phosphine, TCEP) and stabilizing agent (tris[(1-benzyl-1H-1,2,3-triazol-4-yl)methyl]amine, TBTA) were added, and the sample was gently agitated at 250 rpm on a microshaker at room temperature for 30 min. Then, the sample was resolved by SDS-PAGE. […] Then, destained gel was analyzed with in-gel fluorescence scanning using a Biorad ChemiDoc MP imager (excitation 532 nm, 580 nm cut-off filter and 30 nm band-pass). […]

[6] = target: T3, SIRT1 (Homo sapiens, UniProt Q96EB6); assay: Sirtuin inhibition assay (HPLC), SIRT1; type: biochemical; conditions: ratio of IC50s
T3 construct: Plasmids of SIRT1 (full length); made in house
T3 sequence (Q96EB6 1-747): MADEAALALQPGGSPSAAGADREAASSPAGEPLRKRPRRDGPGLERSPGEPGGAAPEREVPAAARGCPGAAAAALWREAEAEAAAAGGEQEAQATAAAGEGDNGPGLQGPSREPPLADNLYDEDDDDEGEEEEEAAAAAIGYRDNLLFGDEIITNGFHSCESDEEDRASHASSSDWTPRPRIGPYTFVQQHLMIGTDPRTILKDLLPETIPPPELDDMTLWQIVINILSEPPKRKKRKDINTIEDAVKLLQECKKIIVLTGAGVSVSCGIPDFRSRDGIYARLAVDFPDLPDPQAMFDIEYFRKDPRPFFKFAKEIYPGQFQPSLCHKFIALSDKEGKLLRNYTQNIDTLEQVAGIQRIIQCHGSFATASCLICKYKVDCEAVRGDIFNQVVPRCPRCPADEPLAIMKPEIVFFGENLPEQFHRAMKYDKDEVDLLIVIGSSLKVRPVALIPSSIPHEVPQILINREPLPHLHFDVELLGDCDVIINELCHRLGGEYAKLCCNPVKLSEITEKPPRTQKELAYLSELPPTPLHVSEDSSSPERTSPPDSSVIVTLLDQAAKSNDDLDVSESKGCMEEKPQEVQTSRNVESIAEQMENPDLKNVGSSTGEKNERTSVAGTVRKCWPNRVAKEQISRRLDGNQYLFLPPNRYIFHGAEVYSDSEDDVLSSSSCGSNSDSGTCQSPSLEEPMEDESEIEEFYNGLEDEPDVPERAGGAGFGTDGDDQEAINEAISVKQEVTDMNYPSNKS
Description: as §1, §2

[7] = target: T4, SIRT2 (Homo sapiens, UniProt Q8IXJ6); assay: Photoaffinity labeling of recombinant SIRT2, in-gel fluorescence; type: biochemical
T4 construct: SIRT2 (38-356); made in house
T4 sequence (Q8IXJ6 38-356): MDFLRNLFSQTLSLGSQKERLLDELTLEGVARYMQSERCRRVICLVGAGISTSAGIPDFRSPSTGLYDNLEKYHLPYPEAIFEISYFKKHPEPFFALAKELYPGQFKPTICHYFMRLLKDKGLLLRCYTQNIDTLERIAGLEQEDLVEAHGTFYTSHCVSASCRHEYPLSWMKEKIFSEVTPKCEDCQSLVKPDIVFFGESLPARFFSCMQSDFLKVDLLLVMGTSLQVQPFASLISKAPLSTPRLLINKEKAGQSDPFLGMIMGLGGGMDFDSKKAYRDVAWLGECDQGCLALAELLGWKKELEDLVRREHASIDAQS
Description: as §3
Figure 3 Comparison of labeling efficiencies of probes 1A and 2A. (A) Concentration-dependent labeling of SIRT2. SIRT2 (10 μM) was incubated with 500 μM NAD^+ and indicated concentrations of probe 1A or 2A in 100 mM phosphate buffer pH 7.5. The samples were incubated at 37 °C for 10 min, subjected to UV irradiation for 1 h, and then “click” conjugated to TAMRA-azide as described in “Materials and Methods”; (B) and (C) Time-dependent labeling of SIRT2 by probe 2A. The labeling reached plateau within 20 min.
A typical labeling experiment was performed as follows: in a 0.7 mL Eppendorf tube, purified recombinant human sirtuin (10 μM) was incubated with NAD^+ (500 μM) and activity-based probe at 37 °C for 10 min. […] Then, destained gel was analyzed with in-gel fluorescence scanning using a Biorad ChemiDoc MP imager (excitation 532 nm, 580 nm cut-off filter and 30 nm band-pass). […]

| SMILES | labeling intensity of SIRT5 by probe 2B in cells [1] | increase of cellular NAD+ concentration [2] [%] | acetylation level of p53 lysine 382, combined with TSA [3] | increased inhibition of SIRT3 compared with probe 1A [4] [fold] | labeling of recombinant sirtuins [5] | increased inhibition of SIRT1 compared with probe 1A [6] [fold] | labeling intensity of SIRT2 ([7]; 10 μM SIRT2, 500 μM NAD+, 1 h irradiation at 365 nm, all concentrations examined) | irradiation time to saturation of SIRT2 labeling ([7]; UV irradiation at 365 nm) [min] |
| --- | --- | --- | --- | --- | --- | --- | --- | --- |
| NC(=O)c1ccc[n+]([C@@H]2O[C@H](CO)[C@@H](O)[C@H]2O)c1 [NR, Nicotinamide riboside] | increased labeling intensity | 170 | – | – | – | – | – | – |
| C#CCCCC1(CCC(=O)N[C@@H](CCCCNC(C)=S)C(=O)N[C@@H](C)C(=O)N[C@@H](C)C(=O)OC)N=N1 [Probe 2A] | – | – | increase the acetylation level of p53 lysine 382 | 2 | labeled SIRT1, SIRT2, SIRT3, and SIRT6 to different extents in dose-dependent manners | 3 | more intensively than probe 1A | ≤ 20 |
